Reference: patent publication US20220040129A1, “TREATMENT OF HYPERAMMONEMIA IN PATIENTS WITH RENAL INSUFFICIENCY” (RECORDATI S.p.A., priority 2019, published 2022)

Experiments:
CYP2C9 = CYP2C9 (Homo sapiens, UniProt P11712); assay: In vitro CYP inhibition; format: in vitro ADME
plasma NH3 [1] = assay: Retrospective review of PA, MMA, IVA decompensation episodes: plasma NH3 and clinical findings; format: in vivo, human
Experimental: […] […] Plasma ammonia (NH3) levels were measured up to a maximum of 15 days from the start of treatment. […] Concomitant standard of care therapies included carnitine, arginine, hydroxocobalamin, biotin, thiamine, riboflavin and glucose.

[2] = Nonclinical safety study in rats: exposure; settings: rat, in vivo
plasma NH3 [3] = assay: Plasma NH3 reduction in Propensity Matching Score (PMS) Population; format: in vivo, human
Experimental: Episodes treated with extracorporeal detoxification (HD, HF, PD) during the timeframe of the analysis were excluded. There were 12 patients in each group, and NH3 levels were measured in 12- and 24-hour periods over 120 hours. […] The two populations analyzed included: 1) Population with baseline plasma NH3 levels over 100 micromol/L in non-neonate or 150 micromol/L in neonate; 2) Propensity Matching Score (PMS) Population. […] These rates of decrease were confirmed to be statistically significant.

CYP2C19 = CYP2C19 (Homo sapiens, UniProt P33261); assay: In vitro CYP inhibition; format: in vitro ADME
CYP2C19, sequence (P33261 whole entry): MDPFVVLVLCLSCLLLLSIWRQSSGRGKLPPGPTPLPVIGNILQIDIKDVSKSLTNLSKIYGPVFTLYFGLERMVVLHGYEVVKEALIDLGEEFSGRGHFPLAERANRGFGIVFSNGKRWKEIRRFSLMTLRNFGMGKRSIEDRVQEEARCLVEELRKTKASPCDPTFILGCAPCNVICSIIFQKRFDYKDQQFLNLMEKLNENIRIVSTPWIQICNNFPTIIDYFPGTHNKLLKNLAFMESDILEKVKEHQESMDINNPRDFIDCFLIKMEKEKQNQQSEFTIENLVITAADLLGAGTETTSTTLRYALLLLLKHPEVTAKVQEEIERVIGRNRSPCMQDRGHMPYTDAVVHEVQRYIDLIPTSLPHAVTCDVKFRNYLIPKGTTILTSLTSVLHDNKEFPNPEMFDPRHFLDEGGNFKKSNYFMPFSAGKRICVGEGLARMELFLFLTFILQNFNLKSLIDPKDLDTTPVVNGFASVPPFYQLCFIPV

[4] = Population PK model (two-compartment, zero order absorption); design: species or system human; settings: value estimated in HVs, fixed in the model
Excerpt: A population PK model was developed using PK data collected from the PK study mentioned above. The data was collected after variable long treatment periods lasting more than a year in some cases, with different doses, and with different dosage regimens in both pediatric and adult volunteers (N=16).
The sparse drug concentrations (24 PK samples) were fitted using a two-compartment model with zero order absorption rate, which was also used to describe the PK time course in the PK study.
The final models for Clearance and Volume were:
Wherein CL is the value of the clearance in a patient, CLt is the typical value of the clearance in adult subjects, WT is the body weight, TM50 is the maturation half time, g is the Hill coefficient and Vt is the typical value of the volume in adult subjects.

[5] = PK study comparing oral to IV CARBAGLU in 36 healthy volunteers; format: in vivo, human
CYP1A2 = molecular target: T1, CYP1A2 (Homo sapiens, UniProt P05177); format: in vitro ADME
T1 sequence (P05177 1-516): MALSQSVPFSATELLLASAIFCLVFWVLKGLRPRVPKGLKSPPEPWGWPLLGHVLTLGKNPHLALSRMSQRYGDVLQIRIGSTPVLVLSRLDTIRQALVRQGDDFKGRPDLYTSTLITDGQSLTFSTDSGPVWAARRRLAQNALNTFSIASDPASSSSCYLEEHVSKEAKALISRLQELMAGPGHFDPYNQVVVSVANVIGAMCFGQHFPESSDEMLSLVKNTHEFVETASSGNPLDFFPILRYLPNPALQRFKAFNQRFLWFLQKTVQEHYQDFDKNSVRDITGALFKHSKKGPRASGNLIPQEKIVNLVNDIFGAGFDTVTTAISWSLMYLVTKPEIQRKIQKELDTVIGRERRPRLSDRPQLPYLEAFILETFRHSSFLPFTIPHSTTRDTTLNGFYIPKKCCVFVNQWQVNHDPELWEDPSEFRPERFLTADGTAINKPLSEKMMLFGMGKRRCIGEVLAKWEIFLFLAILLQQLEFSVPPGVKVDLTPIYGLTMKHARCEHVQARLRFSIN

plasma ammonia = assay: Retrospective review of NAGS deficiency patients: plasma ammonia levels; format: in vivo, human; settings: for Plasma ammonia, Mean (SD) / Plasma ammonia, Median / Plasma ammonia, Range: NAGS deficiency patients
Experimental: Treatment with carglumic acid was divided in two regimens. For acute treatment, patients received a total daily dose of 100 mg/kg/day to 250 mg/kg/per day primarily administered in 2 to 4 divided doses for the first few days of treatment. For maintenance treatment, the dosage was reduced over time based on plasma ammonia level and clinical responses.
Short-term efficacy was evaluated using mean and median change in plasma ammonia levels from baseline to days 1 to 3. Persistence of efficacy was evaluated using long-term mean and median change in plasma ammonia level.
All 13 patients had abnormal plasma ammonia levels at baseline. […] Long-term efficacy was measured using the last reported plasma ammonia level for each of the 13 patients analyzed (median length of treatment was 6 years; range 1 to 16 years). The mean and median plasma ammonia levels were 23 micromol/L and 24 micromol/L, respectively, after a mean treatment duration of 8 years (Table 5).

plasma NH3 [6] = assay: Rate of reduction of plasma NH3 over 36 hours, population with baseline NH3 over 100/150 micromol/L; format: in vivo, human
Excerpt: The two populations analyzed included: 1) Population with baseline plasma NH3 levels over 100 micromol/L in non-neonate or 150 micromol/L in neonate; 2) Propensity Matching Score (PMS) Population. […] These rates of decrease were confirmed to be statistically significant.

[7] = Long-term (mean 8 years), last available value on treatment

CYP2C9, sequence (P11712 whole entry): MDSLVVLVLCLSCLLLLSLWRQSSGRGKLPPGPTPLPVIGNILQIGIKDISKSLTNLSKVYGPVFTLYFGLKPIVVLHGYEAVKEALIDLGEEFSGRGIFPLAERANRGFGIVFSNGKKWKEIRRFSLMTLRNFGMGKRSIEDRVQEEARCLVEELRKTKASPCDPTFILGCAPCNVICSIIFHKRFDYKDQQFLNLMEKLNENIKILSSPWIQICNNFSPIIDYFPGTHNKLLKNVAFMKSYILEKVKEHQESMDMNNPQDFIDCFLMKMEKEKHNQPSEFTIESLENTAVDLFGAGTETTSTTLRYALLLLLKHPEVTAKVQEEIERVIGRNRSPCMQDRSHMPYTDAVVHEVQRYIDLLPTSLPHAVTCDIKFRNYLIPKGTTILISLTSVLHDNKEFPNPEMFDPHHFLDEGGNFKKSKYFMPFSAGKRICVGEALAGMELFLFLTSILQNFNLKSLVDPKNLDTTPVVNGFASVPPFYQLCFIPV

Structure (SMILES): NC(=O)N[C@@H](CCC(=O)O)C(=O)O [carglumic acid, N-carbamoyl-L-glutamic acid]
- Inhibition of CYP2C9 (CYP2C9): not an inhibitor
- Mean reduction in plasma NH3 levels from baseline (plasma NH3 [1]; 36-48 hours from treatment initiation): −63%
- Differences in plasma ammonia level reduction between pediatric and adult patients with PA or MMA (plasma NH3 [1]; 51 patients (27 PA, 24 MMA)): no apparent differences
- Median change in the number of clinical findings from baseline to endpoint (plasma NH3 [1]; clinical, laboratory, neurological, psychiatric, respiratory findings and feeding difficulties): −4.0
- Normalization of the neurological findings (plasma NH3 [1]; human, in vivo): 50 % of episodes
- AUC ([2]; read-out: AUC, exposure previously observed): 258 µg·h/mL
- Cmax ([2]; read-out: Cmax, exposure previously observed): 52 µg/mL
- Reduction of mean plasma NH3 levels from baseline compared with NH3 Scav alone (plasma NH3 [3]; 12 patients per group, over 120 hours): consistent and meaningful reduction
- Median reduction of plasma NH3 (plasma NH3 [3]; 24 hours post dose): 61%
- Inhibition of CYP2C19 (CYP2C19): not an inhibitor
- CLt, typical value of the clearance in adult subjects [4]: 0.178
- Mean fraction of the dose excreted in the urine ([5]; after IV administration): 90%
- Mean fraction of the dose excreted in the urine ([5]; after oral administration): 7.5%
- bioavailability ([5]; human, in vivo, oral vs IV, 36 healthy volunteers, read-out: Mean absolute bioavailability): 9.87%
- Inhibition of CYP1A2 (CYP1A2): not an inhibitor
- Differences in clinical response between adults and pediatric NAGS deficiency patients (plasma ammonia; 23 NAGS deficiency patients): no apparent differences
- Plasma ammonia, Mean (SD) (plasma ammonia; Day 1 of treatment): 181 (358) micromole/L
- Plasma ammonia, Median (plasma ammonia; Day 1 of treatment): 65 µmol/L
- Plasma ammonia, Range (plasma ammonia; Day 1 of treatment): 25 to 1190 µmol/L
- Plasma ammonia, Mean (SD) (plasma ammonia; Day 2 of treatment): 69 (78) micromole/L
- Plasma ammonia, Median (plasma ammonia; Day 2 of treatment): 44 µmol/L
- Plasma ammonia, Range (plasma ammonia; Day 2 of treatment): 11 to 255 µmol/L
- Plasma ammonia, Mean (SD) (plasma ammonia; Day 3 of treatment): 27 (11) micromole/L
- Plasma ammonia, Median (plasma ammonia; Day 3 of treatment): 25 µmol/L
- Plasma ammonia, Range (plasma ammonia; Day 3 of treatment): 12 to 42 µmol/L
- Plasma ammonia, Mean (SD) (plasma ammonia; [7]): 23 µmol/L
- Plasma ammonia, Median (plasma ammonia; [7]): 24 µmol/L
- Plasma ammonia, Range (plasma ammonia; [7]): 9 to 34 µmol/L
- Plasma ammonia, Mean (SD) (plasma ammonia; Long-term (mean 8 years), last available value on treatment, listed as Carglumic Acid): 23 (7) micromole/L
- Plasma ammonia levels by day 3 (plasma ammonia; patients for whom data were available, normal range 5 to 50 micromol/L): normal plasma ammonia levels were attained
- Median time to achieve 50% reduction of plasma NH3 (plasma NH3 [6]; baseline plasma NH3 over 100 micromol/L in non-neonate or 150 micromol/L in neonate): 18 hours post dose
- Speed of plasma NH3 reduction versus NH3 Scav alone group (plasma NH3 [6]; first 36 hours after treatment initiation, the two populations analyzed): statistically significantly faster
